The values that follow are results of earlier work, collected in patent US6638535B2, “Modified release formulations containing a hypnotic agent” (Synthon BV, priority 2000, dated 2003).

The conditions of this data set: in therapy, after ingestion of the commercial immediate release tablet.

In the case of `Cc1ccc(-c2nc3ccc(C)cn3c2CC(=O)N(C)C)cc1` [zolpidem, N,N,6-trimethyl-2-(4-methylphenyl)-imidazo[1,2-s]pyridine-3-acetamide], the “duration of action (action lasts)” value was 4 to 6 h. For the same compound, the “onset of action (starts acting)” value ('or even earlier') is 15 to 30 min.
